# According to PubChem BioAssay AID1996:
# Settings: buffer; pH 7.4; 200.0 µM
row,Structure (SMILES),solubility kinetic [µg/mL]
1,O=C(CN1C(=O)c2cccc3cccc(c23)C1=O)NCCCO,> 46.8
2,CC(CCN1CCN(c2ccccn2)CC1)c1ccccc1 (stereo not given),31
3,CC1CCC(N(CCCN)Cc2ccco2)CC1C (stereo not given),31.6
4,COCCNc1nc(C)c(C(C)=O)s1,25.7
5,Cc1[nH]c(=S)c(C#N)c(C)c1Cc1ccccc1,8.6
6,CC(C)c1cc(=O)n2c(nc3ccccc32)[nH]1,> 34.1
7,CCc1ccccc1Nc1ncnc2ccccc12.Cl,> 42.9
8,CC(=O)c1cccc(NC(=O)CCn2c(=O)oc3ccccc32)c1,19.7
9,COc1ccccc1C(=O)OCC(=O)Nc1ccc(Cl)cn1,5.1
10,O=C(Nc1cc2c(cc1Br)OCCCO2)c1cccnc1,> 52.4
11,c1coc(-c2ccnc(-c3ccncc3)n2)c1,> 33.5
12,Cn1cccc1C(=O)OCc1nc2ccccc2c(=O)[nH]1,29.6
13,Cc1oc(C(C)(C)C)cc1C(=O)Nc1ccc(N2CCOCC2)cc1,4.3
14,CC(C)N(C(=S)Nc1cccc(C(F)(F)F)c1)C(C)c1ccccn1 (stereo not given),6.7
15,COCCCNC(=O)c1ccccc1C(F)(F)F,> 39.2
16,O=c1[nH]c(=O)n([C@H]2C[C@H](O)[C@@H](CO)O2)cc1C(F)(F)F,> 44.4
17,COc1ccccc1C(=O)NCCC(=O)NC1CCCCCC1,> 47.8
18,O=C(CNC(=O)c1ccc(F)cc1)NCc1ccccn1,> 43.1
19,CCOc1ccccc1CNCCc1ccc2c(c1)OCO2.Cl,49.6
20,Cc1ccccc1NC(=O)c1ccccc1N(C)S(=O)(=O)c1ccccc1,46.3
21,O=[N+]([O-])c1ccc(N2CCN(c3ccc(F)cc3)CC2)cc1,0.3
22,O=C(O)c1cccc(NC(=S)NCc2ccccc2)c1,> 43
23,COc1cc(OC)cc(C(=O)N2CC(=O)Nc3ccccc32)c1,> 46.8
24,COc1cc(CC(=O)N2CCN(S(=O)(=O)c3ccc(C)cc3)CC2)cc(OC)c1OC,> 67.3

row,Structure (SMILES),solubility kinetic [µg/mL]
1,CSc1nc(S(=O)(=O)c2ccc(C)cc2)c(Cl)s1,10
2,COC(=O)CN1CCN(C(=O)c2ccco2)CC1,> 37.8
3,CCOC(=O)C1CCN(CC(=O)c2c(C)n(C)c3ccc(OC)cc23)CC1,> 55.9
4,COc1ccc(S(=O)(=O)Nc2ccccc2C(N)=O)cc1OC,47.5
5,COc1ccc(-c2cn3ccccc3n2)cc1,> 33.6
6,CC(OC(=O)C1CC2CCCC(C1)C2=O)C(=O)Nc1cccc([N+](=O)[O-])c1 (stereo not given),> 56.2
7,Cc1cc(Cl)ccc1NC(=O)Cn1cncn1,> 37.6
8,CC(C)C(=O)Nc1ccccc1-c1nc2ccccc2[nH]c1=O,> 46.1
9,CCN(CC)S(=O)(=O)c1cccc(NC(=O)CC2CCCC2)c1,33
10,COc1ccc(S(=O)(=O)n2ccnc2C)c(C)c1C,> 42.1
11,Cc1ccc(S(=O)(=O)CC(O)COc2ccccc2C#N)cc1 (stereo not given),> 49.7
12,CCCOc1ccccc1/C=C1\SC(N)=NC1=O,2.1
13,CNC(=S)Nc1ccc(Cc2ccncc2)cc1,> 38.6
14,Nc1cccc(CP(=O)(c2ccccc2)c2ccccc2)c1,> 46.1
15,COc1ccc(OC)c(N2C(=O)CC(=O)NC2=O)c1,> 39.6
16,COc1ccccc1CNc1ncccc1[N+](=O)[O-],1.3
17,Cc1nnc(SCC(=O)N(C)c2ccccc2)n1-n1cccc1,> 49.1
18,Cc1ccc(NC(=O)CN(C)Cc2ccc(Cl)cc2)cc1,20.6
19,COc1ccccc1NC(=O)COC(=O)c1cc(C)oc1C,6.7
20,Cc1ccc(Cl)cc1NC(=O)CON=C(N)c1ccccc1,32.4
21,COc1ccc(NC(=O)COC(=O)CNC(=O)C2CCCCC2)cc1OC,> 56.8
22,CCN(CC)S(=O)(=O)c1ccc(N2CCOCC2)c(NC(=O)c2ccc(=O)[nH]c2)c1,> 65.2
23,CC(=O)Nc1ccc(C(=O)NCC(c2ccco2)N(C)C)cc1 (stereo not given),44.7
24,O=C1Nc2ccccc2C1Cc1ccc(OC(F)(F)F)cc1 (stereo not given),37.3

row,Structure (SMILES),solubility kinetic [µg/mL]
1,COC(=O)CC1C(=O)NCCN1C(=S)Nc1ccccc1Cl (stereo not given),> 51.3
2,CC1CCN(c2ccccc2NC(=O)c2ccc([N+](=O)[O-])o2)CC1,0.5
3,CN(Cc1nc2ccccc2c(=O)[nH]1)C(=O)c1cccc(NC(=O)c2cccs2)c1,> 62.8
4,O=C(C1CC1)N1CCc2sccc2C1c1ccc(Cl)cc1 (stereo not given),< 0.7
5,COC1c2ccccc2C(=O)N1Cc1ccc(F)cc1 (stereo not given),37.4
6,Nc1cc(=O)[nH]c(SCC(=O)Nc2ccc(N3CCCCC3)cc2)n1,4.8
7,Cc1ccccc1NC(=O)NC1CCS(=O)(=O)C1 (stereo not given),> 40.2
8,CCC1(c2ccccc2)NC(=O)N(CC(=O)Nc2ccc(N3CCOCC3)cc2)C1=O (stereo not given),> 63.4
9,COc1ccc(CCNC(=O)/C=C/c2ccco2)cc1,38.9
10,O=C(CN1C(=O)c2ccccc2S1(=O)=O)NC1CCCCC1,> 48.4
11,O=C(Nc1cccc(-c2nc3ccccc3o2)c1)c1cccnc1,0.3
12,Cc1ccc(S(=O)(=O)CCN2C=CC(C(F)(F)F)=NCC2)cc1,51.4
13,C=CCOc1ccc(CNc2ccc3[nH]c(=O)[nH]c3c2)cc1,7.9
14,CCC(=O)c1ccc(OC(C)C(=O)NC2(C#N)CCCCC2)cc1 (stereo not given),25
15,CCOC(=O)COc1ccc(S(=O)(=O)NC2CC2)cc1,> 44.9
16,Cl.NCCC(=O)N1c2ccccc2Sc2ccc(Cl)cc21,33.7
17,COc1ccc(NC(=O)CCCn2cnc3ccccc3c2=O)cc1,> 50.6
18,CC1CC(C)CN(C(=O)COC(=O)c2ccc3c(c2)OCO3)C1 (stereo not given),47
19,O=S(=O)(NCCOc1ccccc1F)c1ccc(Cl)cc1F,5.7
20,O=C(NC1CCCCCCC1)c1cc(-c2ccccn2)nc2ccccc12,< 0.3
21,CC(C)CCOc1ccc(C(=O)C[N+]2(C)CCOCC2)cc1.[I-],38.4
22,CCN(CC)CCNC(=O)Cn1ncc2ccccc2c1=O,> 45.4
23,COCCCNC(=O)COc1ccc2oc3c(c2c1)CCCC3,44.2
24,O=C(COC(=O)c1ccccc1)NC1CCCC1,> 37.1

row,Structure (SMILES),solubility kinetic [µg/mL]
1,COc1ccc(OCCSc2nc(C)nc3ccccc23)cc1,0.6
2,O=C1NC(=Nc2ccccc2Cl)S/C1=C\c1cccc([N+](=O)[O-])c1,4.2
3,CN1C(N)=NC(=O)/C1=C\c1ccc(Br)cc1,33.7
4,Cc1ccc(C)c(NC(=O)CCN2CCCC(C)C2)c1 (stereo not given),38.5
5,O=C(NCC1CCCO1)c1cc2ccccc2cc1O (stereo not given),> 40.7
6,COCc1cc(NCc2ccc(Cl)cc2)nc(C)n1,34.7
7,Cc1ccc(NC(=O)Cn2ccnc2)cc1C,30.4
8,COc1ccc2oc(=O)c(C(=O)Nc3ccccc3O)cc2c1,1
9,CC(OC(=O)c1ccc(O)cc1)C(=O)Nc1ccc(Oc2ccccc2)cc1 (stereo not given),5
10,Cn1c(=O)c2c(nc(SCCN3CCOCC3)n2C)n(C)c1=O,> 50.9
11,CC(C)(C)Sc1ccc([N+](=O)[O-])cc1C(=O)Nc1ccncc1,> 49.7
12,O=C(Nc1ccc(F)cc1)C1CCN(C(=O)c2ccc(F)cc2)CC1,> 51.7
13,COc1cc(/C=C/C(=O)OCC(=O)NCC2CCCCC2)ccc1O,> 52.1
14,S=C(c1ccccc1)N1CCCC1,> 28.7
15,Cc1ccc(S(=O)(=O)N2CCOCC2)cc1C(=O)N1CCc2ccccc21,54.3
16,O=C(COc1ccc(Br)cc1)N1CCc2ccccc21,< 0.7
17,O=[N+]([O-])c1ccc(O)c(Nc2c([N+](=O)[O-])ccc3nonc23)c1,> 47.6
18,CC(CCc1ccccc1)NC(=O)CN(C)Cc1ccccc1F (stereo not given),48.4
19,CCOC(=O)c1ccc(NC(=O)NCc2ccccc2OC)cc1,2.4
20,C=CCSc1nc2sc3c(c2c(=O)n1CC)CCc1ccccc1-3,> 53.2
21,CC(C)(C)c1ccc(N2C(=N)SCC2=O)cc1,15.8
22,O=C(COc1ccccc1)Nc1ccc(NC(=O)c2ccco2)cc1,2.6
23,NC1=NC(=O)/C(=C/c2ccsc2)S1,19.5
24,CC(C)C(NC(=O)c1ccccc1F)C(=O)NCCCn1ccnc1 (stereo not given),> 52

row,Structure (SMILES),solubility kinetic [µg/mL]
1,CN1C(=O)C(c2ccccc2)C(=O)N(C)C1=O,30.5
2,Cc1ccccc1NC(=O)Nc1ccc2c(c1)OCO2,0.5
3,O=C(COc1ccc2c(c1)OCO2)Nc1nccs1,20.9
4,COc1cc(C(CN)CC(=O)O)ccc1O.Cl (stereo not given),> 39.3
5,O=C(NCC1CCCO1)c1ccccc1NS(=O)(=O)c1cc([N+](=O)[O-])ccc1Cl (stereo not given),> 66
6,CCn1c(=O)c2cc(C(=O)NCCN(C)C)sc2c2ccccc21,51.5
7,O=C(Nc1ccc(OCc2ccccc2)cc1)Nc1cccnc1,1.2
8,COc1ccc(CC(=O)Nc2cccc3c2CCCC3)cc1,1.8
9,COC(=O)c1ccc(N2CCc3ccccc32)c([N+](=O)[O-])c1,1
10,COCCNC(=O)c1cccc(NC(=O)C2=C(C)OCCS2)c1,> 50.5
11,Cc1ccc(NC(=O)CN(C)C(=O)COC(=O)[C@@H](NC(=O)c2ccccc2F)C(C)C)cc1,> 68.6
12,Cc1cc(NC(=O)NC2CC(=O)N(c3ccc4c(c3)OCCO4)C2)no1 (stereo not given),48.5
13,CN1C(=O)c2ccccc2Sc2ccc(C(=O)O)cc21,> 42.8
14,CC(C)CC1NC(=O)N(CC(=O)NC2CCCc3ccccc32)C1=O (stereo not given),45.7
15,CNC(=O)c1[nH]cnc1C(=O)Nc1ccccn1,> 36.8
16,O=C1NC2(CCCCCC2)C(=O)N1Cc1c(F)cccc1Cl,9.6
17,CCC(C)(C)c1ccc(Oc2ccc(N)cc2)cc1,4.2
18,O=C(Nc1ccc2c(c1)C(=O)OC2)c1ccc(Cl)cc1Cl,3
19,COc1ccc(CCC(=O)NC2CCCCC2)cc1,> 39.2
20,O=C(NCCc1ccccc1)C(=S)N1CCCCC1,> 41.5
21,COC(=O)c1sccc1-c1ccc(/C=N/OC(=O)c2cccs2)o1,< 0.8
22,O=[N+]([O-])c1ccc2nc(-c3ccccc3)oc2c1,0.4
23,O=[N+]([O-])c1cccc2c(S(=O)(=O)N3CCOCC3)cccc12,35.4
24,COC(=O)C(CC(=O)O)NCc1ccco1 (stereo not given),> 34.1
